Read-outs that look alike come from different tables or passages of the source.
Legend:
[1] = Cytotoxicity of compounds on HEK293T cells (MTT); type: cell-based; conditions: human
[2] = system: SARS-CoV-2 Wuhan lineage B, hCoV-19/Australia/VIC01/2020 (EPI_ISL_406844); assay: microbe, parasite or virus in culture; type: cell-based; conditions: for IC50: Severe acute respiratory syndrome coronavirus 2, Vero C1008, 96 h
[3] = system: lentiviral particles exhibiting S protein of SARS-CoV-2; assay: microbe, parasite or virus in culture; type: cell-based; conditions: for inhibition at 25 µM: Severe acute respiratory syndrome coronavirus 2, 48 h, read-out: % Neutralization at 25 µM
in vitro = conditions: African green monkey
[4] = system: main viral protease 3CLPro; conditions: cited from earlier work; for active against 3CLPro at a dose of: range for the four flavonoids
[5] = system: SARS-CoV-2 Omicron lineage B.1.1.529, hCoV-19/Russia/Moscow171619-031221/2021; assay: microbe, parasite or virus in culture; type: cell-based; conditions: Severe acute respiratory syndrome coronavirus 2, Vero C1008, 96 h
[6] = system: SARS-CoV-2 Delta lineage B.1.617.2, hCoV-19/Russia/PSK-2804/2021; assay: microbe, parasite or virus in culture; type: cell-based; conditions: for IC50: Severe acute respiratory syndrome coronavirus 2, Vero C1008, 96 h
[7] = target: main protease (3CLpro) of SARS-CoV-2 (Severe acute respiratory syndrome coronavirus 2, UniProt P0DTD1); assay: biochemical
[8] = HEK293T cells, 72 h, MTT, read-out: CC50
[9] = Severe acute respiratory syndrome coronavirus 2

| SMILES | CC50 at 72 h [1] | inhibition at 25 µM [3] | CC50 at 4 days (in vitro) | IC50 [3, 9] | IC50 [2] | IC50 [5] | IC50 [6] | other results |
| --- | --- | --- | --- | --- | --- | --- | --- | --- |
| CC(=O)C1=C(O)C=C2Oc3c(C(=O)CSCCC(=O)O)c(O)c(C)c(O)c3[C@@]2(C)C1=O [Compound 5a] | > 1000 µM | 0% | 177 ± 18.2 µM |  |  |  |  | antiviral activity (in words) [2]: no antiviral activity at all; activity against the pseudovirus system (in words) [3]: no activity |
| CCOC(=O)c1c(CSc2ccccc2)n(C)c2cc(Br)c(O)c(CN(C)C)c12 [Arbidol, reference compound] |  | 58% |  | 12.6 ± 4.1 µM |  |  |  | CC50 at 72 h [1, 8]: 19.8 ± 4.6 µM |
| O=c1c(O)c(-c2ccc(O)c(O)c2)oc2cc(O)c(O)c(O)c12 [Quercetagetin] |  |  |  |  |  |  |  | active against 3CLPro at a dose of [4]: 1.2 to 5.8 µM |
| CC(=O)c1c(O)c(C)c(O)c2c1OC1=Cc3onc(C)c3C(=O)[C@@]12C [Compound 2] | > 1000 µM | 55% | 252 ± 31 µM | 30 ± 2.9 µM |  |  |  | antiviral activity (in words) [2]: did not exhibit antiviral activity at all; In Vitro (Pseudotype-Based Assay) [3]: yes |
| CC(=O)C1=C(O)C=C2Oc3c(C(=O)CSC(C)C(=O)O)c(O)c(C)c(O)c3[C@@]2(C)C1=O (mixture of isomers) [Compound 5b, (2S)-2-({2-[(1R)-12-acetyl-3,5,11-trihydroxy-1,4-dimethyl-13-oxo-8-oxatricyclo[7.4.0.0^2,7]trideca-2(7),3,5,9,11-pentaen-6-yl]-2-oxoethyl}sulfanyl)propanoic acid and (2R)-2-({2-[(1R)-12-acetyl-3,5,11-trihydroxy-1,4-dimethyl-13-oxo-8-oxatricyclo [7.4.0.0^2,7]trideca-2(7),3,5,9,11-pentaen-6-yl]-2-oxoethyl}sulfanyl)propanoic acid (1:1)] | > 1000 µM | 41% | 176 ± 22.6 µM |  | 76.5 ± 8.2 µM |  |  | antiviral activity (in words) [2]: low activity; melting point: 91 to 95 °C |
| O=c1c(O)c(-c2cc(O)c(O)c(O)c2)oc2cc(O)cc(O)c12 [Myricetin] |  |  |  |  |  |  |  | active against 3CLPro at a dose of [4]: 1.2 to 5.8 µM |
| COc1ccc(-c2cc(=O)c3c(O)c(O)c(O)cc3o2)cc1 [4′-O-methylscutellarein] |  |  |  |  |  |  |  | activity against the main protease (in words) [4]: submicromolar |
| CC(=O)c1c(O)c(C)c(O)c2c1OC1=CC(=O)c3c(C)noc3[C@@]12C [Compound 3] | 150 ± 18.5 µM | 65% | 15.5 ± 2.8 µM | 32 ± 5.1 µM | 9.2 ± 2.4 µM | 3.5 ± 1.1 µM | 9.1 ± 1.8 µM |  |
| CC(=O)c1c(O)c(C)c(O)c2c1O[C@@H]1Cc3onc(C)c3C(=O)[C@]21C [Compound 14, (1R,9R)-6-acetyl-3,5-dihydroxy-1,4,14-trimethyl-8,12-dioxa-13-azatetracyclo[7.7.0.0^2,7.0^11,^1⁵]hexadeca-2(7),3,5,11(15),13-pentaen-16-one] | > 1000 µM | 15% | 296 ± 11.9 µM |  |  |  |  | antiviral activity (in words) [2]: does not exhibit antiviral properties; melting point: 152 to 156 °C |
| CC(=O)C1=C(O)C[C@H]2Oc3c(C(C)=O)c(O)c(C)c(O)c3[C@@]2(C)C1=O [Compound 11, (2R,7R)-4,10-diacetyl-5,11,13-trihydroxy-2,12-dimethyl-8-oxatricyclo [7.4.0.0^2,7]trideca-1(9),4,10,12-tetraen-3-one] | 469 ± 24.2 µM | 78% | 84.9 ± 12.1 µM | 22 ± 3.2 µM | 21 ± 3.5 µM |  |  |  |
| O=C1c2c(O)cc(O)cc2O[C@H](c2cc(O)c(O)c(O)c2)[C@H]1O [Dihydromyricetin] |  |  |  |  |  |  |  | active against 3CLPro at a dose of [4]: 1.2 to 5.8 µM |
| CC(=O)C1=C(O)C=C2Oc3c4c(c(C)c(O)c3[C@@]2(C)C1=O)OCC4=O [Compound 8] | 358 ± 31.1 µM | 0% | 176 ± 19.9 µM |  | 44.3 ± 5.2 µM | 47 ± 6.5 µM | 95 ± 8.7 µM | IC50 [7]: ~200 µM; antiviral activity (in words) [6]: almost no activity; activity against the pseudovirus system (in words) [3]: no activity |
| CC(=O)C1=C(O)C=C2Oc3c(C(C)=O)c(O)c(C)c(O)c3[C@@]2(C)[C@@H]1O [Compound 6] |  | 40% |  |  | 65.3 ± 7.4 µM |  |  | CC50 at 72 h [1, 8]: 168 ± 21.2 µM; IC50 [7]: 112 µM; CC50 (in vitro): 99 ± 12.1 µM |
| CCC(CC)COC(=O)[C@H](C)N[P@](=O)(OC[C@H]1O[C@@](C#N)(c2ccc3c(N)ncnn23)[C@H](O)[C@@H]1O)Oc1ccccc1 [Remdesivir, reference compound] |  |  |  |  | 3.8 ± 0.42 µM | 2 ± 0.13 µM | 2.1 ± 0.16 µM | CC50 (in vitro): 711 ± 21.2 µM |
| CC(=O)C1=C(O)C=C2Oc3c(C(C)=O)c(O)c(C)c(O)c3[C@@]2(C)C1=O [Compound 1, (R)-(+)-Usnic acid] |  | 12% |  |  | 10.9 ± 2.2 µM | 3.7 ± 0.8 µM | 20.9 ± 3.4 µM | CC50 at 72 h [1, 8]: > 1000 µM; inhibition of the main protease (in words) [7]: not an inhibitor; activity against the pseudovirus system (in words) [3]: is not an entry inhibitor; CC50 (in vitro): 147 ± 22.1 µM |
| O=c1cc(-c2ccc(O)cc2)oc2cc(O)c(O)c(O)c12 [Scutellarein] |  |  |  |  |  |  |  | active against 3CLPro at a dose of [4]: 1.2 to 5.8 µM |
| CC(=O)C1=C(O)C=C2Oc3c(C(=O)CO)c(O)c(C)c(O)c3[C@@]2(C)C1=O [Compound 10, (2R)-4-acetyl-5,11,13-trihydroxy-10-(2-hydroxyacetyl)-2,12-dimethyl-8-oxatricyclo[7.4.0.0^2,7]trideca-1(9),4,6,10,12-pentaen-3-one] | 750 ± 36.6 µM | 45% | 306 ± 28.6 µM |  | 25.3 ± 2.1 µM | 17.5 ± 3.8 µM | 9.7 ± 1.4 µM | IC50 [7]: ~200 µM; melting point: 107 to 110 °C |
| CC(=O)c1c(O)c(C)c(O)c2c1OC1=CC(=O)/C(=C(/C)N)C(=O)[C@@]12C [Compound 7] | 850 ± 22.6 µM | 12% | 528 ± 16 µM |  |  |  |  | antiviral activity (in words) [2]: has no antiviral activity at all; IC50 [7]: ~200 µM |
| CC(=O)c1c(O)c(C)c(O)c2c1O[C@@H]1CC/C(=C(/C)O)C(=O)[C@]21C [Compound 13, (2R,4E,7R)-10-acetyl-11,13-dihydroxy-4-(1-hydroxyethylidene)-2,12-dimethyl-8-oxatricyclo [7.4.0.0^2,7] trideca-1(13),9,11-trien-3-one] | 151 ± 14.9 µM | 95% | 72.7 ± 14.6 µM | 5.3 µM | 6.7 ± 1.4 µM | 6.6 ± 1.9 µM | 13.5 ± 2.1 µM | IC50 [3]: 5.28 ± 0.8 µM; melting point: 100 to 103 °C |
| CCC1=C(O)C[C@H]2Oc3c(C(C)=O)c(O)c(C)c(O)c3[C@@]2(C)C1=O [Compound 12, (2R,7R)-10-acetyl-4-ethyl-5,11,13-trihydroxy-2,12-dimethyl-8-oxatricyclo[7.4.0.0^2,7]trideca-1(13),4,9,11-tetraen-3-one] | > 1000 µM | 53% | 262 ± 32 µM | 28 ± 3.7 µM | 91 ± 7.1 µM | 60 ± 12.1 µM | 85 ± 11.2 µM | melting point: 58 to 62 °C |
